# Source: patent publication US20170065593A1, “Combination” (Novartis AG, priority 2009, published 2017)
# Test system: 95 cancer cell lines
# Description: (Compound A) or mTOR inhibitor (mTORi, Rapamycin) alone or a combination of both agents at a ratio of 1:2 (MEKi:mTORi) and cell proliferation/death was measured after 3 day drug exposure. Briefly, cells were plated in 384-well plates at 500 cells/well in culture media appropriate for each cell type, supplemented with 10% FBS and 1% penicillin/streptomycin, and incubated overnight at 37° C., 5% CO2. […] (two fold dilutions ranging from 7.3 uM-0.014 nM) or with mTOR inhibitor (two fold dilutions ranging from 14.6 uM-0.112 nM) or in combination with both compounds and incubated for 72 hours. Cell growth was measured using the CellTiterGlo (CTG) reagent (Promega) according to the manufacturer's protocol. Data were analyzed using the XLfit (IDBS Ltd.) curve-fitting tool for Microsoft Excel. Growth IC50 (gIC50) and Ymin values were generated using a four-parameter curve fit algorithm (XLFit algorithm #205).
# Results were expressed as a percent of the t=0 and plotted against the compound concentration. The T=0 value is normalized to 100% and represents the number of cells at the time of compound addition. […] Formula below was used to calculate mutually exclusive combination index (CI). Data were reported as log CI, where the logarithm value of CI was calculated.
# CI=IC50 of a+b/IC50 of a+IC50 of b+a/IC50 of b
# Synergy is defined as CI<1, additivity as CI=1 and antagonism as CI>1. Considering the variability of these proliferation assays we arbitrarily defined log CI>0.1 as antagonism, between −0.1 and 0.1 as no significant effect and <−0.1 as synergy.
substance,measurement,setting,value
"N-{3-[3-cyclopropyl-5-(2-fluoro-4-iodo-phenylamino)6,8-dimethyl;-2,4,7-trioxo-3,4,6,7-tetrahydro-2H-pyrido[4,3-d]pyrimidin-1-yl]phenyl}acetamide [Compound A]",percentage of cell undergoing death (cytotoxic),,20%
same,cell lines undergoing death,independent of the KRAS status,> 20%
